From PubChem BioAssay AID2060622 (Molecular Pharmacology Branch, DTP, NCI, 2025)
Where “and” joins values, the source holds several entries; their conditions need not be identical. Equal entries are not always repeated.

Tested on: 242566-281-R-J2-PDC complex spheroid viability
Assay: Anticancer human tumor 242566-281-R-J2-PDC patient-derived pancreatic carcinoma cell line growth inhibition [CLK]
Settings: for viability, T/C: stronger effect = lower value
Source text: A high-throughput screen of multi-cell type tumor spheroids was designed to identify active combinations of […] and targeted small molecules. Complex spheroids include a stromal component modeled by human endothelial cells (HUVEC) and fibroblasts modeled by human mesenchymal stem cells (MSCs). The concentration ranges selected for each drug and investigational agent were based upon clinically achievable concentrations if the clinical Cmax of the agent was known.
Compounds. The drugs and investigational agents: cirtuvivint (SM08502; NSC835563), CC-671 (NSC850746), vemurafenib (NSC761431), tapotoclax (NSC804041), sotorasib (NSC818433), adagrasib (NSC831453), MRTX-1133 (NSC836407), BAY2416964 (NSC825713), copanlisib (NSC816437), inavolisib (NSC800729), abemaciclib (NSC768073), osimertinib (NSC779217), entinostat (NSC756642), eltanexor (KPT-8602, NSC794443), venetoclax (NSC766270), ceralasertib (NSC777638), bortezomib (NSC756655), olaparib (NSC753686), talazoparib (NSC767125), alisertib (NSC759677), peposertib (NSC802822), gemcitabine (NSC613327), 5-fluorouracil (NSC19893), SN-38 (NSC673596), oxaliplatin (NSC266046), paclitaxel (NSC125973), and doxorubicin (NSC123127), were obtained from the National Cancer Institute (NCI) Developmental Therapeutics Program Chemical Repository. The FDA-approved anticancer drug set is available from the Developmental Therapeutics Program at https://dtp.cancer.gov/organization/dscb/obtaining/available plates.htm. […] The stock solutions were prepared in dimethyl sulfoxide (DMSO, Sigma-Aldrich, St. Louis, MO, cat. D2650), except for the platinum complexes which were prepared in saline (Quality Biological, Gaithersburg, MD, cat. 114-055-101), at 800-fold the tested concentration and stored at -70 degrees C prior to their use. All drugs and investigational agents were tested over a range starting from a high concentration at or near the clinical Cmax and decreasing in half-log increments. If the clinical Cmax for an agent had not been determined, the highest concentration tested was 10 microM.
Cell Culture. All cells were maintained in an incubator at 37 degrees C and 5% CO2 with 95% humidity. The PDC lines were cultured according to standard operating procedures established by the NCI PDMR. Briefly, all PDCs were thawed and cultured in Matrigel-coated flasks prepared with a working solution of 1X Ham's F-12 nutrient mix, without supplementation (Invitrogen, Waltham, MA, cat. 11765054), 100 U/mL penicillin-streptomycin (Invitrogen, cat. 15140122), and 2.5% Matrigel (Corning Inc., Corning, NY, cat. 354248) for the first three passages. The 947758-054-R-J2-PDC line was cultured in 6B/Colon 1A media, which includes advanced DMEM/F-12 (Thermo Fisher Scientific, cat. 12634028), 10 mM HEPES (Thermo Fisher Scientific, cat. 15630080), 1X GlutaMAX supplement (Thermo Fisher Scientific, cat. 35050061), 0.1 mg/mL primocin (InvivoGen, cat. ant-pm-2), 10% defined fetal bovine serum, heat inactivated (HyClone Laboratories Inc., cat. SH30070.03HI), 1.25 mM N-Acetyl-L-cysteine (Sigma-Aldrich, cat. A9165), 10 mM nicotinamide (Sigma-Aldrich, cat. N0636), 1X B-27 supplement (Thermo Fisher Scientific, cat. 17504044), 1X N-2 supplement (Thermo Fisher Scientific, cat. 17502048), and 10 microM Y-27632 dihydrochloride (Tocris Bioscience, cat. 1254). The 876862-298-R-J1-PDC was cultured in 6E media, which includes all 6B/Colon 1A media components plus 50% L-WRN conditioned media (ATCC, cat. CRL-3276), 50 ng/mL recombinant human EGF recombinant protein (hEGF; Thermo Fisher Scientific, cat. PHG0311), 10 ng/mL recombinant human fibroblast growth factor 10 (hGFG-10; PeproTech, cat. 100-26), 1 ng/mL recombinant human fibroblast growth factor 2 (hFGF-2; PeproTech, cat. 100-18B), and 1 µM prostaglandin E2 (PGE2; Tocris, cat. 2296). The 227483-062-R1-J1-PDC line was cultured in Panc media, containing all 6E components except hFGF-2, with the addition of 500 nM SB-431542 (Selleckchem, cat. S1067) and 10 nM gastrin (Tocris, cat. 3006). […]

[1] = curve of first compound, second compound 0.0316 µM
[2] = curve of first compound, second compound 0.1 µM
[3] = curve of first compound, second compound 0.316 µM
[4] = curve of first compound, second compound 1 µM
[5] = curve of first compound, second compound 3.16 µM
[6] = curve of first compound, second compound 10 µM
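Further: spheroids exposed to compounds for 7 days before readout.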
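Wherever viability, T/C is given: 100% = DMSO vehicle control wells.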

With `COc1c(OCCCN2CCOCC2)ccc2c3n(c(=NC(=O)c4cnc(N)nc4)nc12)CCN3` + CN1CCN(c2cc(C(=O)Nc3cc4cc(-c5cnn(C)c5)ccc4cn3)ccn2)CC1 as the compound, how does the IC50 [1] read?
Its IC50 is 0.0255 µM.

What about the IC50 [2] of the same compound?
Its IC50 is 0.0194 µM.

What about the IC50 [3] of the same compound?
The IC50 was under 0.00316 µM.

And the IC50 [4]?
Its IC50 is under 0.00316 µM.

And the IC50 [5]?
The IC50 was under 0.00316 µM.

What about the IC50 [6] of the same compound?
The IC50 was under 0.00316 µM.

And the viability, T/C (second compound 0.0316 µM, first compound 0.00316 µM)?
The viability, T/C was 91%.

What about the viability, T/C (second compound 0.0316 µM, first compound 0.01 µM) of the same compound?
The viability, T/C was 74.5%.

What about the viability, T/C (second compound 0.0316 µM, first compound 0.0316 µM) of the same compound?
Its viability, T/C is 43.5%.

What about the viability, T/C (second compound 0.0316 µM, first compound 0.1 µM) of the same compound?
Its viability, T/C is 22.1%.

And the viability, T/C (second compound 0.0316 µM, first compound 0.316 µM)?
The viability, T/C was 12.3%.

What about the viability, T/C (second compound 0.0316 µM, first compound 1 µM) of the same compound?
Its viability, T/C is 7.95%.

What about the viability, T/C (second compound 0.1 µM, first compound 0.00316 µM) of the same compound?
The viability, T/C was 85.6%.

And the viability, T/C (second compound 0.1 µM, first compound 0.01 µM)?
Its viability, T/C is 69.5%.

And the viability, T/C (second compound 0.1 µM, first compound 0.0316 µM)?
Its viability, T/C is 34.6%.

And the viability, T/C (second compound 0.1 µM, first compound 0.1 µM)?
Its viability, T/C is 18.1%.

What about the viability, T/C (second compound 0.1 µM, first compound 0.316 µM) of the same compound?
Its viability, T/C is 9.35%.

And the viability, T/C (second compound 0.1 µM, first compound 1 µM)?
The viability, T/C was 6.4%.

What about the viability, T/C (second compound 0.316 µM, first compound 0.00316 µM) of the same compound?
Its viability, T/C is 34%.

What about the viability, T/C (second compound 0.316 µM, first compound 0.01 µM) of the same compound?
Its viability, T/C is 28.9%.

What about the viability, T/C (second compound 0.316 µM, first compound 0.0316 µM) of the same compound?
Its viability, T/C is 17.4%.

What about the viability, T/C (second compound 0.316 µM, first compound 0.1 µM) of the same compound?
Its viability, T/C is 6.56%.

What about the viability, T/C (second compound 0.316 µM, first compound 0.316 µM) of the same compound?
The viability, T/C was 4.83%.

And the viability, T/C (second compound 0.316 µM, first compound 1 µM)?
Its viability, T/C is 5.47%.

What about the viability, T/C (second compound 1 µM, first compound 0.00316 µM) of the same compound?
Its viability, T/C is 3.43%.

What about the viability, T/C (second compound 1 µM, first compound 0.01 µM) of the same compound?
Its viability, T/C is 3.63%.

What about the viability, T/C (second compound 1 µM, first compound 0.0316 µM) of the same compound?
Its viability, T/C is 3.24%.

What about the viability, T/C (second compound 1 µM, first compound 0.1 µM) of the same compound?
The viability, T/C was 2%.

And the viability, T/C (second compound 1 µM, first compound 0.316 µM)?
The viability, T/C was 1.83%.

And the viability, T/C (second compound 1 µM, first compound 1 µM)?
The viability, T/C was 1.24%.

And the viability, T/C (second compound 3.16 µM, first compound 0.00316 µM)?
Its viability, T/C is 6.71%.

And the viability, T/C (second compound 3.16 µM, first compound 0.01 µM)?
The viability, T/C was 6.19%.

What about the viability, T/C (second compound 3.16 µM, first compound 0.0316 µM) of the same compound?
Its viability, T/C is 5.45%.

And the viability, T/C (second compound 3.16 µM, first compound 0.1 µM)?
Its viability, T/C is 3.96%.

And the viability, T/C (second compound 3.16 µM, first compound 0.316 µM)?
Its viability, T/C is 3.56%.

And the viability, T/C (second compound 3.16 µM, first compound 1 µM)?
Its viability, T/C is 2.53%.

What about the viability, T/C (second compound 10 µM, first compound 0.00316 µM) of the same compound?
The viability, T/C was 2.33%.

And the viability, T/C (second compound 10 µM, first compound 0.01 µM)?
Its viability, T/C is 2.32%.

What about the viability, T/C (second compound 10 µM, first compound 0.0316 µM) of the same compound?
Its viability, T/C is 1.35%.

What about the viability, T/C (second compound 10 µM, first compound 0.1 µM) of the same compound?
The viability, T/C was 1.56%.

And the viability, T/C (second compound 10 µM, first compound 0.316 µM)?
The viability, T/C was 1.19%.

And the viability, T/C (second compound 10 µM, first compound 1 µM)?
The viability, T/C was 1.26%.

Which results are given for `NC(=O)C(=Cn1cnc(-c2cc(C(F)(F)F)cc(C(F)(F)F)c2)n1)c1cncnc1` + CNC(=O)c1ccc(Nc2nc(OC3CCCC3)c3c(-c4ccc5nc(C)oc5c4)c[nH]c3n2)c(OC)c1?
IC50 [1]: > 3 µM; IC50 [2]: > 3 µM; IC50 [3]: 1.98 µM; IC50 [4]: 0.758 µM; IC50 [5]: 0.409 µM; IC50 [6]: 0.308 µM; viability, T/C (second compound 0.0316 µM, first compound 0.00949 µM): 119%; viability, T/C (second compound 0.0316 µM, first compound 0.03 µM): 129%; viability, T/C (second compound 0.0316 µM, first compound 0.0949 µM): 128%; viability, T/C (second compound 0.0316 µM, first compound 0.3 µM): 141%; viability, T/C (second compound 0.0316 µM, first compound 0.949 µM): 109%; viability, T/C (second compound 0.0316 µM, first compound 3 µM): 57.1%; viability, T/C (second compound 0.1 µM, first compound 0.00949 µM): 109%; viability, T/C (second compound 0.1 µM, first compound 0.03 µM): 125%; viability, T/C (second compound 0.1 µM, first compound 0.0949 µM): 130%; viability, T/C (second compound 0.1 µM, first compound 0.3 µM): 129%; viability, T/C (second compound 0.1 µM, first compound 0.949 µM): 98%; viability, T/C (second compound 0.1 µM, first compound 3 µM): 51.1%; viability, T/C (second compound 0.316 µM, first compound 0.00949 µM): 106%; viability, T/C (second compound 0.316 µM, first compound 0.03 µM): 91.5%; viability, T/C (second compound 0.316 µM, first compound 0.0949 µM): 117%; viability, T/C (second compound 0.316 µM, first compound 0.3 µM): 122%; viability, T/C (second compound 0.316 µM, first compound 0.949 µM): 69.1%; viability, T/C (second compound 0.316 µM, first compound 3 µM): 39.2%; viability, T/C (second compound 1 µM, first compound 0.00949 µM): 87.2%; viability, T/C (second compound 1 µM, first compound 0.03 µM): 99.1%; viability, T/C (second compound 1 µM, first compound 0.0949 µM): 87.2%; viability, T/C (second compound 1 µM, first compound 0.3 µM): 86.4%; viability, T/C (second compound 1 µM, first compound 0.949 µM): 41.2%; viability, T/C (second compound 1 µM, first compound 3 µM): 12.4%; viability, T/C (second compound 3.16 µM, first compound 0.00949 µM): 77.4%; viability, T/C (second compound 3.16 µM, first compound 0.03 µM): 82.6%; viability, T/C (second compound 3.16 µM, first compound 0.0949 µM): 78.3%; viability, T/C (second compound 3.16 µM, first compound 0.3 µM): 57.9%; viability, T/C (second compound 3.16 µM, first compound 0.949 µM): 25.8%; viability, T/C (second compound 3.16 µM, first compound 3 µM): 5.98%; viability, T/C (second compound 10 µM, first compound 0.00949 µM): 72.5%; viability, T/C (second compound 10 µM, first compound 0.03 µM): 70.6%; viability, T/C (second compound 10 µM, first compound 0.0949 µM): 71.8%; viability, T/C (second compound 10 µM, first compound 0.3 µM): 49.8%; viability, T/C (second compound 10 µM, first compound 0.949 µM): 17.3%; viability, T/C (second compound 10 µM, first compound 3 µM): 4.4%

For `CC1(C)CCC(CN2CCN(c3ccc(C(=O)NS(=O)(=O)c4ccc(NCC5CCOCC5)c([N+](=O)[O-])c4)c(Oc4cnc5[nH]ccc5c4)c3)CC2)=C(c2ccc(Cl)cc2)C1`, which viability, T/C (compound 0.0316 µM) is on record?
Its viability, T/C is 110% and 84.2%.

And the viability, T/C (compound 0.1 µM)?
The viability, T/C was 89.7% and 93.9%.

What about the viability, T/C (compound 0.316 µM) of the same compound?
The viability, T/C was 109% and 102%.

And the viability, T/C (compound 1 µM)?
Its viability, T/C is 117% and 132%.

And the viability, T/C (compound 3.16 µM)?
The viability, T/C was 109% and 122%.

What about the viability, T/C (compound 10 µM) of the same compound?
The viability, T/C was 14.1% and 73.1%.

What about the IC50 (curve of compound) of the same compound?
Its IC50 is 6.41 µM and > 10 µM.
